Measurements published in US8278311B2, “Substituted pyrimidine derivatives” (Abbott Laboratories, priority 2008, dated 2012).
pKi: −log10 of the molar value. Read-outs that look alike come from different tables or passages of the source.

Columns and labels:
histamine H4 receptor [1] = target: T1, histamine H4 receptor (Homo sapiens, UniProt Q9H3N8); test: 3H-histamine competition binding assay
T1 construct: expressed in transfected cells
Experimental: The potency of compounds of the invention in displacing ^3H-histamine in competition binding assays is assessed by methods described in Esbenshade, et al., Biochemical Pharmacology (2004), vol. 68, pp. 933-945. In this assay, membranes were prepared from HEK-293 cells transiently transfected with the pClNeo expression vector harboring the histamine H4 receptor by homogenization of the cells on ice in TE buffer (50 mM Tris-HCl buffer, pH 7.4, containing 5 mM EDTA), 1 mM benzamidine, 2 μg/mL aprotinin, 1 μg/mL leupeptin, and 1 μg/mL pepstatin. The homogenate was centrifuged at 40,000 g for 20 minutes at 4° C. This step was repeated, and the resulting pellet was resuspended in TE buffer. Aliquots were frozen at −70° C. until needed. On the day of assay, membranes were thawed and diluted with TE buffer. Competition radioligand binding assays were performed with increasing concentrations of test compound in the presence of [^3H]-histamine incubated at 25° C. for 1 hour in a total volume of 0.5 mL of 50 mM Tris, 5 mM EDTA, pH 7.4. All binding reactions were terminated by filtration under vacuum onto polyethylenimine (0.3%) presoaked Unifilters (PerkinElmer Life Sciences) or Whatman GF/B filters (Whatman, Clifton, N.J.) followed by three brief washes with 4 mL of ice-cold TE buffer. Bound radiolabel was determined by liquid scintillation counting. For all of the radioligand competition binding assays, IC50 values and Hill slopes were determined by Hill transformation of the data and Ki values were determined by the Cheng-Prusoff equation. The following table of representative histamine H4 receptor ligands is provided, along with potency values: […]

histamine H4 receptor [2] = target: T1, histamine H4 receptor; test: in vitro assay of histamine H4 activity using FLIPR-Ca+2 flux; type: cell-based; settings: HEK-293 cells stably expressing histamine H4 receptor and Gαqi5, Fluo-4; Kb for antagonists and inverse agonists, EC50 for partial agonists
Text: There are many methods available to show the effectiveness of compounds as histamine H4 receptor ligands. Histamine H4 receptors from mammalian species have been cloned. Methods to clone, express, and assess the potency and functional activity of such cloned genes are well known to those skilled in the art of molecular biology. Examples of methods of cloning and expressing histamine H4 receptors, and of assessing the potency and functional activity are described in Nguyen, et al. Molecular Pharmacology (2001) vol. 59 pp. 427-433; Zhu, et al. Molecular Pharmacology (2001) vol. 59 pp. 434-441; Coge, et al., Biochemical and Biophysical Research Communications (2001) vol. 284, pp. 301-309; Liu, et al. Molecular Pharmacology (2001) vol. 59 pp. 420-426; Liu, et al. Journal of Pharmacology and Experimental Therapeutics (2001) v. 299, pp. 121-130; and Thurmond, et al. Journal of Pharmacology and Experimental Therapeutics (2004) v. 309, pp. 404-413. In the present case, to determine the potency and effectiveness of representative compounds of this invention as histamine-H4 receptor ligands (H4 receptor ligands), the following tests were conducted according to previously described methods (see Esbenshade, et al., Biochemical Pharmacology (2004), vol. 68, pp. 933-945, and in Krueger, et al., Journal of Pharmacology and Experimental Therapeutics (2005) v. 314, pp. 271-281): histamine H4 receptors were cloned and stably expressed in HEK-293 (human embryonic kidney) cells coexpressing a Gαqi5. Before testing, cells are loaded with a Ca+^2 sensitive fluorescent dye, in this case Fluo-4 (Invitrogen, Carlsbad, Calif.). In the case of partial agonist or agonist ligands, addition of compound to the cells leads to the increase in intracellular Ca^+2 which is detected by FLIPR (Fluorescence Imaging Plate Reader; Molecular Devices, Sunnyvale, Calif.) technology. In a similar manner, compounds that are antagonists or inverse agonists, block the increase in fluorescence induced by the full histamine H4 agonist histamine, and partial agonists reduce the amount of fluorescence induced by the full histamine H4 agonist histamine. The fluorescence intensities measured before addition of the test compound are subtracted from the fluorescence intensities at later time points. Peak response values determined at each concentration of ligand are expressed as a percentage of the response obtained with the full agonist histamine. Concentration versus response data are analyzed to obtain compound potency as Kb values for antagonists and inverse agonists and as EC50 values for partial agonists.

[3] = membranes of HEK-293 cells transiently transfected with histamine H4 receptor, [3H]-histamine, 25° C., 1 hour, read-out: Binding assay Potency (Ki)

T1 sequence (Q9H3N8 whole entry, species assumed): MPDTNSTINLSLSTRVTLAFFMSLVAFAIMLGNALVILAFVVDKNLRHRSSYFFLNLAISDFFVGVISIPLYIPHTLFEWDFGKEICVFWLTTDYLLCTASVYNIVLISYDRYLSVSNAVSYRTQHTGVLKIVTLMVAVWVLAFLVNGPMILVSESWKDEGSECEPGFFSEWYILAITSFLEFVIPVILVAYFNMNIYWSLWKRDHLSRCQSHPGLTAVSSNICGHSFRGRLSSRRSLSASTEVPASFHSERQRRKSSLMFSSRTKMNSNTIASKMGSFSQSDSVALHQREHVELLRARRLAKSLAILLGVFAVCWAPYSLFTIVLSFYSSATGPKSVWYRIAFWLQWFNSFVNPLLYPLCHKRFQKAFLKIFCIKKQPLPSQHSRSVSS

| SMILES | pKi (histamine H4 receptor [1]; [3]) | Potency (histamine H4 receptor [2]) | pKi (histamine H4 receptor [1]) |
| --- | --- | --- | --- |
| CN[C@@H]1CCN(c2nc(N)nc3c2CC[C@@H]2CCCC[C@@H]32)C1 (mixture of isomers) [Example 16, trans-4-[(3R)-3-(methylamino)pyrrolidin-1-yl]-5,6,6a,7,8,9,10,10a-octahydrobenzo[h]quinazolin-2-amine] | 8.59 | 1.4 nM |  |
| Nc1nc2c(c(N3CC[C@@H](N)C3)n1)CC[C@@H]1CCCC[C@@H]21 (mixture of isomers) [Example 17, trans-4-[(3R)-3-aminopyrrolidin-1-yl]-5,6,6a,7,8,9,10,10a-octahydrobenzo[h]quinazolin-2-amine] |  | 1.2 nM |  |
| CN[C@@H]1CCN(c2nc(N)nc3c2CC[C@@H]2CCCC[C@H]32)C1 (mixture of isomers) [Example 19, cis-4-[(3R)-3-(methylamino)pyrrolidin-1-yl]-5,6,6a,7,8,9,10,10a-octahydrobenzo[h]quinazolin-2-amine] |  | 1.6 nM |  |
| Nc1nc2c(c(N3CC[C@@H](N)C3)n1)CC[C@@H]1CCCC[C@H]21 (mixture of isomers) [Example 20, cis-4-[(3R)-3-aminopyrrolidin-1-yl]-5,6,6a,7,8,9,10,10a-octahydrobenzo[h]quinazolin-2-amine] |  | 1.4 nM |  |
| Nc1nc2c(c(N3CCNCC3)n1)CC[C@@H]1CCCC[C@@H]21 (relative stereo) [Example 12, trans-4-piperazin-1-yl-5,6,6a,7,8,9,10,10a-octahydrobenzo[h]quinazolin-2-amine] | 8.70 | 6.9 nM |  |
| Nc1nc2c(c(N3CCNCC3)n1)CC[C@@H]1CCCC[C@H]21 (relative stereo) [Example 13, cis-4-piperazin-1-yl-5,6,6a,7,8,9,10,10a-octahydrobenzo[h]quinazolin-2-amine] | 8.74 | 3.3 nM |  |
| CNC1CN(c2nc(N)nc3c2CC[C@@H]2CCCC[C@@H]32)C1.O=C(O)C(F)(F)F.O=C(O)C(F)(F)F (relative stereo) [Example 14, trans-4-[3-(methylamino)azetidin-1-yl]-5,6,6a,7,8,9,10,10a-octahydrobenzo[h]quinazolin-2-amine bis(trifluoroacetate)] | 9.05 | 1.5 nM |  |
| CCNC1CN(c2nc(N)nc3c2CC[C@@H]2CCCC[C@@H]32)C1.O=C(O)C(F)(F)F.O=C(O)C(F)(F)F (relative stereo) [Example 15, trans-4-[3-(ethylamino)azetidin-1-yl]-5,6,6a,7,8,9,10,10a-octahydrobenzo[h]quinazolin-2-amine bis(trifluoroacetate)] | 9.00 | 3.2 nM |  |
| Nc1nc2c(c(N3C[C@H]4CCCN[C@H]4C3)n1)CC[C@@H]1CCCC[C@H]21 (relative stereo) [Example 21, cis-4-[cis-octahydro-6H-pyrrolo[3,4-b]pyridin-6-yl]-5,6,6a,7,8,9,10,10a-octahydrobenzo[h]quinazolin-2-amine] |  | 8.3 nM |  |
| CNC1CN(c2nc(N)nc3c2CC[C@@H]2CCCC[C@H]32)C1 (relative stereo) [Example 22, cis-4-[3-(methylamino)azetidin-1-yl]-5,6,6a,7,8,9,10,10a-octahydrobenzo[h]quinazolin-2-amine] |  | 3.0 nM |  |
| CCNC1CN(c2nc(N)nc3c2CC[C@@H]2CCCC[C@H]32)C1 (relative stereo) [Example 23, cis-4-[3-(ethylamino)azetidin-1-yl]-5,6,6a,7,8,9,10,10a-octahydrobenzo[h]quinazolin-2-amine] |  | 3.0 nM |  |
| Nc1nc2c(c(N3C[C@H]4CCCN[C@H]4C3)n1)CCCC1C3C=CC(CC3)C21 (relative stereo) [Example 24, 4-cis-octahydro-6H-pyrrolo[3,4-b]pyridin-6-yl-6,7,7a,8,11,11a-hexahydro-5H-8,11-ethanobenzo[6,7]cyclohepta[1,2-d]pyrimidin-2-amine] |  | 91.2 nM |  |
| Nc1nc2c(c(N3C[C@H]4CCCN[C@H]4C3)n1)CCCC1C3CCC(CC3)C21 (relative stereo) [Example 27, 4-cis-octahydro-6H-pyrrolo[3,4-b]pyridin-6-yl-6,7,7a,8,9,10,11,11a-octahydro-5H-8,11-ethanobenzo[6,7]cyclohepta[1,2-d]pyrimidin-2-amine] |  | 89.1 nM |  |
| CN[C@@H]1CCN(c2nc(N)nc3c2CCC2=C3C3CCCCC3O2)C1 (stereo partly drawn) [Example 2, 4-[(3R)-3-(methylamino)pyrrolidin-1-yl]-5,6,7a,8,9,10,11,11a-octahydro[1]benzofuro[2,3-h]quinazolin-2-amine] | 8.48 | 5.9 nM |  |
| CN1CCCN(c2nc(N)nc3c2CCC2=C3C3CCCCC3O2)CC1 (stereo not shown) [Example 5, 4-(4-methyl-1,4-diazepan-1-yl)-5,6,7a,8,9,10,11,11a-octahydro[1]benzofuro[2,3-h]quinazolin-2-amine] |  | 16 nM |  |
| CN1CCN(c2nc(N)nc3c2CCC2=C3C3CCCCC3O2)CC1 (stereo not shown) [Example 6, 4-(4-methylpiperazin-1-yl)-5,6,7a,8,9,10,11,11a-octahydro[1]benzofuro[2,3-h]quinazolin-2-amine] |  | 25 nM |  |
| Nc1nc(N2CC[C@@H](N)C2)c2ccc3c(c2n1)C1CCCCC1O3 (stereo partly drawn) [Example 7, 4-[(3R)-3-aminopyrrolidin-1-yl]-7a,8,9,10,11,11a-hexahydro[1]benzofuro[2,3-h]quinazolin-2-amine] | 7.90 | 4.1 nM |  |
| Nc1nc(N2C[C@H]3CNC[C@H]32)c2ccc3c(c2n1)C1CCCCC1O3 (stereo partly drawn) [Example 8, 4-[(1R,5S)-3,6-diazabicyclo[3.2.0]hept-6-yl]-7a,8,9,10,11,11a-hexahydro[1]benzofuro[2,3-h]quinazolin-2-amine] |  | 61.7 nM |  |
| Nc1nc2c(c(N3CCCNCC3)n1)CCC1=C2C2CCCCC2O1 (stereo not shown) [Example 9, 4-(1,4-diazepan-1-yl)-5,6,7a8,9,10,11,11a-octahydro[1]benzofuro[2,3-h]quinazolin-2-amine] |  | 16 nM |  |
| CC(C)N1CCCN(c2nc(N)nc3c2CCC2=C3C3CCCCC3O2)CC1 (stereo not shown) [Example 10, 4-(4-isopropyl-1,4-diazepan-1-yl)-5,6,7a,8,9,10,11,11a-octahydro[1]benzofuro[2,3-h]quinazolin-2-amine] |  | 1260 nM |  |
| Nc1nc2c(c(N3CCCN(C4CCC4)CC3)n1)CCC1=C2C2CCCCC2O1 (stereo not shown) [Example 11, 4-(4-cyclobutyl-1,4-diazepan-1-yl)-5,6,7a,8,9,10,11,11a-octahydro[1]benzofuro[2,3-h]quinazolin-2-amine] |  | 2000 nM |  |
| Nc1nc2c(c(N3CC4CCCNC4C3)n1)CCC1CCCCC21 (stereo not drawn) [Example 18, trans-4-[cis-octahydro-6H-pyrrolo[3,4-b]pyridin-6-yl]-5,6,6a7,8,9,10,10a-octahydrobenzo[h]quinazolin-2-amine] |  | 4.9 nM | 8.59 |
| Nc1nc2c(c(N3CCNCC3)n1)CCCC1C3C=CC(CC3)C21 (stereo not shown) [Example 26, 4-piperazin-1-yl-6,7,7a,8,11,11a-hexahydro-5H-8,11-ethanobenzo[6,7]cyclohepta[1,2-d]pyrimidin-2-amine] |  | 60.3 nM |  |
